In US20110245334A1, “USE OF RACEMATES OF PINOCEMBRIN IN PREPARING MEDICAMENTS FOR TREATING STROKE” (CSPC Zhonggi Pharmaceutical Technology (Shijiazhuang) Co. …, priority 2008, published 2011):

Legend:
Format in all cases: in vivo, rat
MCAO rats [1] = experiment: Neurobehavioral examination (Bederson's score), MCAO acute ischemic stroke
Protocol: Experimental animals: 100 male SD rats with a body weight of 250-280 g were purchased from the Experimental Animals Institute of the Chinese Academy of Medical Science. The rats were grouped randomly as a sham operation group, a model group, pinocembrin groups and a nimodipine group (3 mg/kg).
Experimental model: the model of acute ischemic stroke was made by middle cerebral artery occlusion (MCAO).
The string occlusion method in middle cerebral artery as established by Zea Longa was adopted with proper improvements. 400 mg/kg 10% chloral hydrate was intraperitoneally injected in rats. The external carotid artery (ECA) was separated and ligated at the site where the artery emitted for about 0.8 cm. The end of ECA closing to the heart was clipped by an artery clip. A 2 mm V-shaped incision was made from ECA ligation to ECA bifurcation. A nylon line was inserted gently into […] and then into internal carotid artery (ICA) through the bifurcation of ECA and ICA after loosening the artery clip. The nylon line was pushed into the brain through ICA and inserted in depth of 18.5±0.5 mm when resistance was felt slightly. The nylon line should reach smaller anterior cerebral artery through the beginning of middle cerebral artery (MCA) and ICA could be ligated and sutured. Stump of the nylon line should be reserved with 1 cm outside the skin.
Neurobehavioral examination was performed before the animals were put to death. The rats were raised off the ground for about 1 chi (1 chi=⅓ meter) to observe the state of two forelimbs. The rats were placed on the ground and were pushed by their shoulders to observe differences of their resistance. The rats were placed on the ground and were observed by the way of walking. Four-stage scoring method […] was adopted. The higher the score was, the more serious injury existed in their neurobehavior.
Bederson's scoring standard:
(1) If the rats acted completely normal, score 0 was recorded.
(2) When the rats were raised off the ground, if the rats rotated or retracted forelimb of surgery-contralateral side internally, score 1 was recorded.
(3) When the rats were placed on the ground and squeezed with the hand to examine the resistance of both sides, if the resistance of surgery-contralateral side declined, score 2 was recorded.
(4) When the rats were placed on the ground to observe the way of walking, if the rats circled around the surgery-contralateral side, score 3 was recorded.
(5) If the rats were injured too seriously to move by themselves, score 4 was recorded.

tMCAO rats [2] = experiment: Brain water content, tMCAO time window study; settings: 2 hours ischemia and 24 hours reperfusion
Protocol: (§1) 1. In the test, transient middle cerebral artery occlusion (tMCAO) model of rats was adopted. The reperfusion was performed after focal cerebral ischemia for 2 hours so as to inspect therapeutic time window of pinocembrin after focal cerebral ischemia. The rats were administered by pinocembrin racemate (1 mg/kg, 5 mg/kg, intravenous injection) after reperfusion 1 hour, 4 hours and 6 hours (i.e., ischemia 3 hour, 6 hours and 8 hours). (R)-pinocembrin and (S)-pinocembrin (1 mg/kg, 5 mg/kg, intravenous injection) were administered after reperfusion 1 hour and 4 hours (i.e., ischemia 3 hour and 6 hours). The therapeutic time windows of these drugs in focal cerebral ischemia were assessed by studying their effects to neurological symptom scores, infarct sizes and brain water contents during 24 hours after tMCAO.
(§2) 2.4 Experimental Grouping and Administration • Sham operation group (intravenous injection of normal saline after 3 hours of ischemia); • Model group (intravenous injection of 50 mg/kg hydroxypropyl β-cyclodextrin after 3 hours of ischemia); • Nimodipine group (1 mg/kg, administered after 3 hours of ischemia); • Pinocembrin racemate group (1 mg/kg, 5 mg/kg, administered after 3, 6 and 8 hours of ischemia); • (R)-pinocembrin group (1 mg/kg, 5 mg/kg, administered after 3 and 6 hours of ischemia); • (S)-pinocembrin group (1 mg/kg, 5 mg/kg, administered after 3 and 6 hours of ischemia).
(§3) First administration was performed by intravenous injection, and intraperitoneal injection was carried out once 12 hours later with a dose 1.5 times of that for intravenous injection.
The wet weight of each animal's brain was weighted before sliced. After staining, the brain slices were dried at 105° C. for 24 hours, and the dry weight of each animal's brain was weighted. The brain water contents of animals of various groups were compared. Brain water content=(brain wet weight−brain dry weight)/brain wet weight×100%.

tMCAO rats [3] = experiment: Neurobehavioral examination (Bederson's score), tMCAO time window study; settings: 2 hours ischemia and 24 hours reperfusion
Protocol: as §1
The CCA and ICA were clipped with artery clips. Two No. 0 surgery lines were litigated on the ECA distal end with 2-3 mm spacing and then the vascular between the two surgery lines was cut. The distal end of ECA was pulled until it formed a straight line with the ICA. An incision was cut on ECA and a nylon line was inserted through ECA into ICA. After the artery clip was loosen, the nylon line was pushed on into the brain through ICA and inserted in depth of 18.5±0.5 mm when resistance was felt slightly. The nylon line reached a smaller anterior cerebral artery through the beginning of MCA and then the blood flow obstruction in right MCA was established. the animals were kept in anesthesia during the obstruction. After 2 hours of obstruction, the nylon line was gently pulled out to ECA stub to form reperfusion. During the surgery process, the animals were irradiated by table lamp of 100 W to maintain the body temperature. The room temperature was kept in range of 23-25° C.
as §2, §3
Neurobehavioral examination was performed respectively when the animals were awake after surgery and before the animals were put to death. Bederson's score was adopted (see details in Example 2, 1. Neurobehavioral Examination).

MCAO rats [4] = experiment: Cerebral infarct volume (TTC), MCAO
Protocol: After neurobehavioral scoring, the rats were put to death by decollation and their brain tissues were removed quickly and put into a refrigerator of −20° C. 10 min later, the brain tissue was moved to an environment of room temperature. After the olfactory bulb, cerebellar and lower brain stem were resected, the brain tissue was cut into five continuous coronal slices with an interval of 2 mm and was cut first on the connection midpoint of brain anterior pole and optic decussation, second on optic decussation, third on funnel handle and fourth on midpoint of funnel handle and thick leaves caudate nucleus. Then the brain slices were quickly put into 5 ml solution containing 4% TTC and 0.1 ml mol·L^−1K2HPO4 and incubated at a constant temperature of 37° C. and in condition of darkness for 30 min. During the time period, the brain slices were tipped every 5 min. […] Every group of brain slices were put in order and photographed. The photographs were processed by an image analysis system and infarct area in every slice was calculated. The infarct volume of every slice was calculated by multiplying the infarct area by the thickness of slice (2 mm), and the infarct volume was the sum of infarct volumes of all slices.
Infarct volume(%)=(volume of surgery-contralateral hemisphere−infarct volume of surgery-homolateral hemisphere)/volume of surgery-contralateral hemisphere×100%

O=C1CC(c2ccccc2)Oc2cc(O)cc(O)c21 (racemic) [Pinocembrin racemate, pinocembrin racemate]
Bederson's score (MCAO rats [1]; 3 mg/kg): 2.4 ± 0.7
Bederson's score (MCAO rats [1]; 10 mg/kg): 1.8 ± 0.6
Bederson's score (MCAO rats [1]; 30 mg/kg): 1.5 ± 0.3
Brain water content (%) (tMCAO rats [2]; 1 mg/kg, 3 h): 82.20 ± 1.00 %
Brain water content (%) (tMCAO rats [2]; 1 mg/kg, 6 h): 82.44 ± 1.28 %
Brain water content (%) (tMCAO rats [2]; 1 mg/kg, 8 h): 83.26 ± 1.05%
Brain water content (%) (tMCAO rats [2]; 5 mg/kg, 3 h): 82.23 ± 1.42 %
Brain water content (%) (tMCAO rats [2]; 5 mg/kg, 6 h): 81.12 ± 1.42 %
Brain water content (%) (tMCAO rats [2]; 5 mg/kg, 8 h): 83.29 ± 1.79%
Neurobehavioral value (tMCAO rats [3]; 1 mg/kg, 3 h): 1.44 ± 0.72
Neurobehavioral value (tMCAO rats [3]; 1 mg/kg, 6 h): 1.68 ± 0.46
Neurobehavioral value (tMCAO rats [3]; 1 mg/kg, 8 h): 1.88 ± 0.61
Neurobehavioral value (tMCAO rats [3]; 5 mg/kg, 3 h): 1.44 ± 0.52
Neurobehavioral value (tMCAO rats [3]; 5 mg/kg, 6 h): 1.66 ± 0.77
Neurobehavioral value (tMCAO rats [3]; 5 mg/kg, 8 h): 1.91 ± 0.66
Percentage of infarct volume (%) (MCAO rats [4]; 3 mg/kg): 23.1 ± 3.4 %
Percentage of infarct volume (%) (MCAO rats [4]; 3 mg/kg, listed as pinocembrin racemate): 23.1±3.4%
Percentage of infarct volume (%) (MCAO rats [4]; 10 mg/kg): 21.4 ± 2.1 %
Percentage of infarct volume (%) (MCAO rats [4]; 10 mg/kg, listed as pinocembrin racemate): 21.4±2.1%
Percentage of infarct volume (%) (MCAO rats [4]; 30 mg/kg): 14.6 ± 1.1 %
Percentage of infarct volume (%) (MCAO rats [4]; 30 mg/kg, listed as pinocembrin racemate): 14.6±1.1%

COCCOC(=O)C1=C(C)NC(C)=C(C(=O)OC(C)C)C1c1cccc([N+](=O)[O-])c1 (centres unmarked) [Nimodipine, reference compound]
Bederson's score (MCAO rats [1]; 3 mg/kg): 2.5 ± 0.7
Brain water content (%) (tMCAO rats [2]; 1 mg/kg, 3 h): 83.33 ± 1.01%
Neurobehavioral value (tMCAO rats [3]; 1 mg/kg, 3 h): 2.09 ± 0.63
Percentage of infarct volume (%) (MCAO rats [4]; 3 mg/kg): 16.7 ± 1.3 %
Percentage of infarct volume (%) (MCAO rats [4]; 3 mg/kg, listed as nimodipine): 16.7±1.3%
